The text below walks through data of US8415469B2, “Compounds and methods for kinase modulation, and indications therefor” (Plexxikon Inc., priority 2005, dated 2013).

Holding throughout (assay type): biochemical
In one test the target is T1, FGFR1 (Homo sapiens, UniProt P11362, C488A/C584S).
T1 construct: P1351.pET N6 BI-PTP FGFR A458-E765-X C488A, C584S; made in house; host or cells: E. coli (PTP1B co-expressed)
In words: AlphaScreen kinase assay, FGFR1. To be noted: read-out: IC50, activity toward kinase FGFR.

The target in a further test is T2, Kit (Homo sapiens, UniProt P10721).
T2 construct: P1332.N6 BI PTP KIT M552-K948-X COD; His6 (N); made in house; host or cells: E. coli (PTP1B co-expressed)
T2 sequence (P10721 with tags, fused parts or gaps): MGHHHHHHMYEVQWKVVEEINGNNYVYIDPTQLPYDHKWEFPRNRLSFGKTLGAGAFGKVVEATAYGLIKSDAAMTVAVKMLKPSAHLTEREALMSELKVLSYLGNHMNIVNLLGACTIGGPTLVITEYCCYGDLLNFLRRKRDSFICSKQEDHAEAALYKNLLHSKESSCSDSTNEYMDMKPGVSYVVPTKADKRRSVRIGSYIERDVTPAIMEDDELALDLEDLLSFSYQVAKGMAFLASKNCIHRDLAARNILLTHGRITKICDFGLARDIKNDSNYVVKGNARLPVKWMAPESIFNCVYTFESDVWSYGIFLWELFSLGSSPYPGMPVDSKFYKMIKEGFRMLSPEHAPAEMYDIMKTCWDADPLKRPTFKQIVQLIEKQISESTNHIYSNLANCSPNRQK
In words: AlphaScreen kinase assay, Kit. The conditions noted are these: read-out: IC50, activity toward kinase Kit.

The next test concerns the target T3, B-Raf V600E (Homo sapiens, UniProt P15056, V600E).
T3 construct: P4254. pFastBacBD-CDC37 BRAF D437-K722-X, V600E; His6 with pFastBac HT leader (TEV site) (N); made in house; host or cells: Sf9 (baculovirus; chaperone CDC37 co-expressed)
In words: AlphaScreen kinase assay, B-Raf V600E. To be noted: read-out: IC50, activity toward kinase B-Raf V600E.

Molecules are shown by their SMILES.

T3 sequence (P15056 with tags, fused parts or gaps V600E): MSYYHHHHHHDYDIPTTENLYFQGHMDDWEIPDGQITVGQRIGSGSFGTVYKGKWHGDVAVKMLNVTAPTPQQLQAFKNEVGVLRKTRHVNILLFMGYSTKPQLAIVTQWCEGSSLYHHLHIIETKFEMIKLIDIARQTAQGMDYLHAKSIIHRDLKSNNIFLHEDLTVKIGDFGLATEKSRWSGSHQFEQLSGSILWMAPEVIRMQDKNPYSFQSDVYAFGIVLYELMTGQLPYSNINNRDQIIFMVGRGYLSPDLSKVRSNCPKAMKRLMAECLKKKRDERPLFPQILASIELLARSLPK
T1 sequence (P11362 458-765 C488A/C584S): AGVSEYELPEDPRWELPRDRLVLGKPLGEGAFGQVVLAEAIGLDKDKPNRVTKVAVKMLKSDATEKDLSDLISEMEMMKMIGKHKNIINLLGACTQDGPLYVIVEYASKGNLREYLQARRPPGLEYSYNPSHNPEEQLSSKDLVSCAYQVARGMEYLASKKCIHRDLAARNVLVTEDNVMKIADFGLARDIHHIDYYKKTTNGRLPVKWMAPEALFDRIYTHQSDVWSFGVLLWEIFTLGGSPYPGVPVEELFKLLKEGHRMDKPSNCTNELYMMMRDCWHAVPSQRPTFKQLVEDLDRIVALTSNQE

Regarding `O=C(c1cccc([N+](=O)[O-])c1)c1c[nH]c2ncccc12` [Compound P-0219], the IC50 on FGFR1 was no more than 10 µM.

As to `CC(C)Nc1ccc(C(=O)c2c[nH]c3ncccc23)cn1` [Compound P-0227], the IC50 on FGFR1 is no more than 10 µM.

In the case of `O=C(c1cccc(Cl)c1Cl)c1c[nH]c2ncc(Br)cc12` [Compound P-0294], the IC50 on FGFR1 was no more than 10 µM.

As to `COc1cccc(Cc2c[nH]c3ncc(-c4ccc(C(=O)C(F)(F)F)[nH]4)cc23)c1` [Compound P-0309], the IC50 at FGFR1 is no more than 10 µM.

Take `Cc1ccc(Cc2c[nH]c3ncccc23)cc1C` [Compound P-0368]: at FGFR1, the IC50 is no more than 10 µM.

On to `Fc1cc(F)cc(Cc2c[nH]c3ncccc23)c1` [Compound P-0374], for which, at FGFR1, the IC50 was no more than 10 µM.

Consider `c1ccc(Nc2cnc3[nH]ccc3c2)cc1` [Compound P-0384], for which the IC50 on Kit is no more than 10 µM.

Regarding `c1cnc2[nH]cc(Cc3ccc(NCC4CC4)nc3)c2c1` [Compound P-0400], at FGFR1, the IC50 was no more than 10 µM.

`Cc1ccc(F)cc1C(=O)c1c[nH]c2ncc(Br)cc12` [Compound P-0424]: the IC50 on FGFR1 was no more than 10 µM.

Consider `COc1cccc(CCc2c[nH]c3ncccc23)c1` [Compound P-0450], for which the IC50 on Kit is no more than 10 µM.

For `COc1cccc(C(=O)c2c[nH]c3ncc(-c4cc(F)cc(F)c4)cc23)c1` [Compound P-0474], the IC50 at FGFR1 was no more than 10 µM.

`O=C(c1ccc2ccccc2n1)c1c[nH]c2ncccc12` [Compound P-0479]: the IC50 at FGFR1 is no more than 10 µM.

Regarding `c1ccc(CNc2ccc(Cc3c[nH]c4ncccc34)cc2)cc1` [Compound P-0493], the 50% inhibitory concentration (IC50) at B-Raf V600E and at FGFR1 was no more than 10 µM throughout.

As for `O=C(c1ccc(Cl)nc1)c1c[nH]c2ncc(Br)cc12` [Compound P-0499], the 50% inhibitory concentration (IC50) at Kit was no more than 10 µM.

Take `Cc1cc(Cc2c[nH]c3ncccc23)ccc1F` [Compound P-0510]: on FGFR1, the IC50 was no more than 10 µM.

In the case of `COc1cccc(CCc2c[nH]c3ncc(-c4ccsc4)cc23)c1` [Compound P-0519], at Kit, the concentration for half-maximal inhibition (IC50) is no more than 10 µM.

With `OCc1cccc(-c2c(CNCC(O)c3ccc(O)cc3)[nH]c3ncccc23)c1` (centres unmarked) [Compound P-0554], the IC50 at Kit is no more than 10 µM.

Turning to `c1ccc2cc(Cc3c[nH]c4ncccc34)ccc2c1` [Compound P-0575], at FGFR1, the IC50 was no more than 10 µM.

Take `Brc1ccc(Cc2c[nH]c3ncccc23)cc1` [Compound P-0615]: the half-inhibitory concentration (IC50) at FGFR1 was no more than 10 µM.

`c1ccc(Sc2c[nH]c3ncccc23)cc1` [Compound P-0626]: the IC50 on Kit was no more than 10 µM.

`Clc1ccc(-c2cnc3[nH]ccc3c2)cc1` [Compound P-0815]: the IC50 on Kit was no more than 10 µM.

As for `CC(C)(C)Oc1ccc(Cc2c[nH]c3ncccc23)cn1` [Compound P-0819], the concentration for half-maximal inhibition (IC50) on B-Raf V600E and at FGFR1 was no more than 10 µM throughout.

In the case of `CC(C)(C)c1ccc(Cc2c[nH]c3ncccc23)cc1` [Compound P-0828], the IC50 at FGFR1 is no more than 10 µM.

Regarding `COc1cccc(Cc2c[nH]c3nccc(-c4cccc(OC)c4)c23)c1` [Compound P-0979], the IC50 on FGFR1 is no more than 10 µM.

Take `O=C(c1c(F)ccc(N(Cc2ccccc2)Cc2ccccc2)c1F)c1c[nH]c2ncc(-c3cccnc3)cc12` [Compound P-1074]: the half-maximal inhibitory concentration (IC50) at B-Raf V600E and on FGFR1 was no more than 10 µM each time.

For `COc1cccc(Cc2c[nH]c3ncc(-c4ccccc4)cc23)c1` [Compound P-1084], the IC50 on Kit was no more than 10 µM.

For the compound `O=[N+]([O-])c1c[nH]c2nccc(Cl)c12` [Compound P-1096], the IC50 on Kit was no more than 10 µM.

In the case of `COc1cccc(C(=O)c2c[nH]c3ncc(Nc4ccccc4)cc23)c1` [Compound P-1120], the IC50 on B-Raf V600E and on FGFR1 was no more than 10 µM each time.

In the case of `FC(F)(F)Oc1cccc(Cc2c[nH]c3nccc(Br)c23)c1` [Compound P-1123], the IC50 on B-Raf V600E and at FGFR1 was no more than 10 µM throughout.

On to `O=C(c1c(F)ccc([N+](=O)[O-])c1F)c1c[nH]c2ncc(Br)cc12` [Compound P-1182], for which the IC50 on FGFR1 is no more than 10 µM.

As for `COC(c1ccc(N(Cc2ccc(Cl)cc2)C(=O)OC(C)(C)C)nc1)c1c[nH]c2ncccc12` (centres unmarked) [Compound P-1183], the IC50 on B-Raf V600E is no more than 10 µM.

Consider `CC(C)(C)c1ccc(OCc2nc(-c3ccnc4[nH]ccc34)no2)cc1` [Compound P-1187], for which the IC50 on B-Raf V600E was no more than 10 µM.

Regarding `CC(C)(C)OC(=O)Nc1ccc(-c2c[nH]c3ncccc23)cc1` [Compound P-1195], the IC50 at B-Raf V600E was no more than 10 µM.

Regarding `N#Cc1ccc(CCc2c[nH]c3ncccc23)cc1` [Compound P-1199], at B-Raf V600E, the IC50 was no more than 10 µM.

As for `O=C(c1c(F)ccc(Cl)c1F)c1c[nH]c2ncccc12` [Compound P-1272], the IC50 on FGFR1 was no more than 10 µM.

`CCCNS(=O)(=O)c1ccc(NCC)c(C(=O)c2c[nH]c3ncccc23)c1F` [Compound P-1273]: the IC50 on FGFR1 was no more than 10 µM.

As to `Cc1ccc(F)c(C(=O)c2c[nH]c3ncccc23)c1F` [Compound P-1274], the IC50 at FGFR1 was no more than 10 µM.

`CCCS(=O)(=O)Nc1ccc(F)c(C(OC)c2c[nH]c3ncc(Br)cc23)c1F` (centres unmarked) [Compound P-1275]: on Kit, the IC50 was no more than 10 µM.

Take `COc1ccc([N+](=O)[O-])cc1C(OC)c1c[nH]c2ncc(Br)cc12` (centres unmarked) [Compound P-1287]: the half-inhibitory concentration (IC50) on FGFR1 is no more than 10 µM.

As to `COc1ccc(C(=O)c2c[nH]c3ncc(Br)cc23)c(F)c1` [Compound P-1320], the IC50 at Kit was no more than 10 µM.

Take `COc1ccc(Cc2c[nH]c3ncc(Br)cc23)c(F)c1` [Compound P-1322]: on FGFR1, the IC50 was no more than 10 µM.

Turning to `O=C(c1cccc(OC(F)(F)F)c1)c1c[nH]c2ncc(-c3ccccc3)cc12` [Compound P-1408, (5-Phenyl-1H-pyrrolo[2,3-b]pyridin-3-yl)-(3-trifluoromethoxy-phenyl)-methanone], the IC50 at Kit is no more than 10 µM.

`CCCCN(c1ccc(F)c(Cc2c[nH]c3ncc(-c4cccnc4)cc23)c1F)S(=O)(=O)c1ccc(C(F)(F)F)cc1` [Compound P-1444]: at B-Raf V600E, the concentration for half-maximal inhibition (IC50) is no more than 10 µM.

For `COCCOc1ccc(F)c(C(=O)c2c[nH]c3ncc(Br)cc23)c1F` [Compound P-1453, (5-Bromo-1H-pyrrolo[2,3-b]pyridin-3-yl)-[2,6-difluoro-3-(2-methoxy-ethoxy)-phenyl]-methanone], the IC50 on FGFR1 was no more than 10 µM.

For `COCCOc1ccc(F)c(Cc2c[nH]c3ncc(Br)cc23)c1F` [Compound P-1454, 5-Bromo-3-[2,6-difluoro-3-(2-methoxy-ethoxy)-benzyl]-1H-pyrrolo[2,3-b]pyridine], the IC50 on FGFR1 is no more than 10 µM.

`Fc1ccc(OCc2ccccc2)c(F)c1Cc1c[nH]c2ncc(-c3cccnc3)cc12` [Compound P-1455, 3-(3-Benzyloxy-2,6-difluoro-benzyl)-5-pyridin-3-yl-1H-pyrrolo[2,3-b]pyridine]: the IC50 on FGFR1 is no more than 10 µM.

Regarding `O=C(c1c(F)ccc(OCc2ccccc2)c1F)c1c[nH]c2ncc(-c3cccnc3)cc12` [Compound P-1467, (3-Benzyloxy-2,6-difluoro-phenyl)-(5-pyridin-3-yl-1H-pyrrolo[2,3-b]pyridin-3-yl)-methanone], the IC50 at FGFR1 is no more than 10 µM.

On to `OC(c1cccc2c1OC(F)(F)O2)c1c[nH]c2ncc(Br)cc12` (centres unmarked) [Compound P-1512], for which the half-maximal inhibitory concentration (IC50) on FGFR1 was no more than 10 µM.

As to `O=C(c1cccc(OC(F)F)c1)c1c[nH]c2ncc(Br)cc12` [Compound P-1514, (5-Bromo-1H-pyrrolo[2,3-b]pyridin-3-yl)-(3-difluoromethoxy-phenyl)-methanone], the IC50 on Kit was no more than 10 µM.

With `CS(=O)(=O)Nc1cccc(-c2cnc3[nH]cc(C(=O)c4cccc5c4OC(F)(F)O5)c3c2)c1` [Compound P-1516, N-{3-[3-(2,2-Difluoro-benzo[1,3]dioxole-4-carbonyl)-1H-pyrrolo[2,3-b]pyridin-5-yl]-phenyl}-methanesulfonamide], the IC50 at B-Raf V600E and on FGFR1 was no more than 10 µM each time.

On to `O=C(c1cc(OC(F)F)cc(OC(F)F)c1)c1c[nH]c2ncc(-c3ccccc3)cc12` [Compound P-1521, (3,5-Bis-difluoromethoxy-phenyl)-(5-phenyl-1H-pyrrolo[2,3-b]pyridin-3-yl)-methanone], for which the concentration for half-maximal inhibition (IC50) on Kit was no more than 10 µM.

For the compound `O=C(c1c[nH]c2ncc(Br)cc12)c1cccc2c1ccn2S(=O)(=O)c1ccccc1` [Compound P-1524, (1-Benzenesulfonyl-1H-indol-4-yl)(5-bromo-1H-pyrrolo[2,3-b]pyridin-3-yl)-methanone], the IC50 on FGFR1 was no more than 10 µM.

As for `COc1cnc2[nH]cc(C(O)c3c(F)ccc(NS(=O)(=O)c4ccc(C(F)(F)F)cc4)c3F)c2c1` (centres unmarked) [Compound P-1540], the IC50 at B-Raf V600E is no more than 10 µM.

Consider `COC(=O)c1cnc2[nH]ccc2c1` [Compound P-1543], for which the IC50 on Kit was no more than 10 µM.

`COCCOc1ccc(F)c(C(=O)c2c[nH]c3ncc(OC)cc23)c1F` [Compound P-1584, [2,6-Difluoro-3-(2-methoxy-ethoxy)-phenyl]-(5-methoxy-1H-pyrrolo[2,3-b]pyridin-3-yl)-methanone]: the IC50 on FGFR1 was no more than 10 µM.

Take `COc1cnc2[nH]cc(C(=O)c3c(F)ccc(OCc4ccccc4)c3F)c2c1` [Compound P-1597, (3-Benzyloxy-2,6-difluoro-phenyl)-(5-methoxy-1H-pyrrolo[2,3-b]pyridin-3-yl)-methanone]: at FGFR1, the IC50 is no more than 10 µM.

Consider `CCCS(=O)(=O)Nc1cccc(C(O)c2c[nH]c3ncc(Br)cc23)c1C` (centres unmarked) [Compound P-1607], for which the IC50 on B-Raf V600E is no more than 10 µM.

Take `CN(C)S(=O)(=O)N(C)c1ccc(F)c(C(=O)c2c[nH]c3ncc(Cl)cc23)c1F` [Compound P-1666]: at B-Raf V600E, the IC50 is no more than 10 µM.

As to `O=C(c1c(F)ccc(NS(=O)(=O)c2ccc(-c3cnco3)cc2)c1F)c1c[nH]c2ncc(Cl)cc12` [Compound P-1843, N-[3-(5-Chloro-1H-pyrrolo[2,3-b]pyridine-3-carbonyl)-2,4-difluoro-phenyl]-4-oxazol-5-yl-benzenesulfonamide], at B-Raf V600E, the IC50 is no more than 10 µM.
